Laboratory results from patent US7592326B2, “Method for stimulating the immune, inflammatory or neuroprotective response” (priority 2004, dated 2009).

What was measured:
[1] = tested on: human basophils; assay: IL-3 dependent IL-13 secretion by human basophils; assay type: cell-based; conditions: for inhibition of IL-13 induced by IL-3: 18-20 h culture, FIG. 18A
[2] = tested on: human basophils; assay: IgE-dependent IL-4 secretion by human basophils; assay type: cell-based
Procedure: (§1) Studies investigating the effect of the TBDMS-cGpGp analog on IgE-dependent IL-4 and histamine secretion induced by cross-linking were then performed. […] The inhibition of IL-4 was evident using the TBDMS-cGpGp analog as well as the cGpAp analog. Note that IgE-mediated histamine release is 90% complete within 20 minutes after stimulation- histamine is preformed and store in cytoplasmic granules. Although IL-4 is not preformed, it is rapidly generated denovo and secreted within 3-6 hours. In performing these experiments, a standard protocol for testing various anti-allergic drugs was used.
(§2) Specifically, the basophils were pretreated 15 minutes with the analogs before adding anti-IgE antibody for activation. Culture supernatants were analyzed for histamine and IL-4 three hours later. Thus, unlike the IL-13 induced by IL-3 during an 18-20 h culture, the release of histamine and IL-4 are far more rapid under IgE crosslinking conditions. It may be that inhibition would be greater if a greater pre-incubation time was performed with the analogs. Additional experiments will test different pre-incubation times to determine whether greater inhibition is observed. It is important to note that neither analog induced histamine release or IL-4 when used alone at the 50 uM concentration. T this is additional evidence that the inhibitory effect in not due to toxicity- histamine would most likely be released if the analogs were causing cell lysis.
IL-4 measurements were made in an experiment where the cyclic dinucleotide analogs were tested in a 1 hour pretreatment of basophils before activating with anti-IgE antibody. The control release to anti-IgE antibody was 262 pg/106 basophils (a relatively robust response being that cell responsiveness decreases the longer the wait before activating). Both the TBMDS-cGpGp and cGpAp analogs produced ˜30% inhibition at the 50μM concentration. […] It may be that overnight incubation with cyclic dinucleotide (similar to the IL-13 inhibition studies) would show even greater inhibition.

[3] = tested on: Primary hippocampal cells; assay: Staurosporine-induced cell death in primary hippocampal cultures (CellTiter 96 AQueous Assay); assay type: cell-based; conditions: 100 nM, 22 h
Procedure: To assess the role of cyclic dinucleotides in modulating the neurological response, i.e., prevent cell death induced by staurosporine (STS) in primary hippocampal nerve cells, the effects of c-di-GMP on hippocampal cells was analyzed. Primary hippocampal cells were prepared according to previously described methods (Pereira et al., 1993). Briefly, the hippocampi were dissected from the brain of 18-day-old fetal rats. Following enzymatic and mechanical dissociation, cells were plated at a density of 100,000 cells/well in 96-well plates pre-coated with matrigel. At the 7th day after plating, cultures were subjected to one of the following treatments: (i) vehicle (24 h), (ii) STS (100 nM, 22 h), (iii) c-di-GMP (24 h), (iv) c-di-GMP (2 h) followed by c-di-GMP -plus-STS (22 h), (v) c-di-GMP -plus-STS (24 h), or (vi) STS (2 h) followed by c-di-GMP -plus-STS (22 h). At the end of the treatments, cell viability was analyzed using CellTiter 96® AQueous Assay (Promega). The assay involves the spectrophotometric measurement (at 490 nm) of the mitochondrial conversion of a tetrazolium dye into a colorful product. The absorbance of the assay correlates with the number of metabolically active cells.

[4] = tested on: pDC; assay: Cytokine secretion by pDC treated with TBDMS analog; assay type: cell-based, human
Procedure: Whether or not TBDMS would directly induce (or affect CpG-dependent) cytokine (IL-6, TNF-alpha, IL-10) secretion was then tested. […] IL-6 was not measured. […] Cells from one of the 3 subjects did secrete 100-200 pg/10^6 cells more TNF-alpha than the ˜400 secreted in medium alone. The same pattern was seen using these cells when the combination of CpG and TMDMS was used. However, these effects were not evident for the other two pDC preparations.

[5] = tested on: human basophils; assay: IgE-dependent histamine release by human basophils; assay type: cell-based; conditions: 15 minutes pretreatment
Procedure: as §1
as §2, with “T this is additional evidence that the inhibitory effect in not due to toxicity- histamine would most likely be released if the analogs were causing cell lysis.” left out

[6] = tested on: basophils; assay: SOCS expression in basophils (real-time PCR); assay type: cell-based, human
Procedure: Whether or not cyclic dinucleotides affected induction of SOCS (Suppresser Of Cytokine Synthesis) expression in basophils treated with CDN's was then tested. […] Cells were treated for 18 h, total RNA isolated, and RT-PCR performed for SOCS-1, SOCS-3, and the HPRT housekeeping gene. The fact that cGpGp also induces SOCS-1 may explain why some inhibition of IL-3-induced IL-13 secretion is observed with this cyclic dinucleotide analog. […] In the current IL-13 assay, the cyclic dinucleotide is added simultaneously with IL-3. The TBDMS-cGpGp likely induces SOCS-1 expression faster and thus accounts for greater inhibition of IL-13. […] While modest inhibitory activity with cGpGp was observed, evidence that cGpGp induces SOCS-1 and sometimes better than TBDMS-cGpGp at this particular time point was observed. These differences might be explained by kinetics and it may be that SOCS gene expression would be higher following TBDMS-cGpGp treatment when examined at an earlier time point.

[7] = tested on: lung leukocytes; assay: Lung leukocyte accumulation in Klebsiella-infected mice (lung digest, flow cytometry); assay type: in vivo, Balb/c mice
[8] = Solubility
[9] = assay type: in vitro ADME, human
Procedure: Commercially supplied pooled human serum (100 uL) (Cambrex Bio Science Walkersville, Inc.) was diluted in ion-exchanged water. An aliquot of the resulting human serum solution was subjected to HPLC analysis (conditions: COSMOSIL 5C18-AR-II column (4.6×200 mm); buffer A; buffer B, 80% acetonitrile in water; gradient, 0-10 min A 100%, 10-60 min A:B=100:0 to A:B=40:60 in 50 min; detection 254 nm, flow rate, 1.0 mL/min, temperature 40° C.). Separately, a 100 uM of c-di-GMP solution in human serum was prepared by adding 100 uL of a 500 uM c-di-GMP aqueous solution to a mixture of 390 uL of human serum and 10 uL of 40 mM 2-methylbenzimidazole (an internal standard for estimating the extent of decomposition of c-di-GMP) in methanol. An aliquot of the test solution was diluted immediately after the preparation solution and then heated at 100° C. for 5 min to quench activity of enzymes. The resulting test sample was subjected to HPLC analysis after 24 h treatment. Peaks that appeared in both analyses were compared. Results are based on 3 independent experiments.

[10] = 50 uM, 15 minutes pretreatment, supernatants three hours later, FIG. 18B
[11] = 50μM, 1 hour pretreatment, control release 262 pg/106 basophils

Nc1nc2c(ncn2[C@@H]2O[C@@H]3COP(=O)(O)O[C@H]4[C@@H](O)[C@H](n5cnc6c(N)ncnc65)O[C@@H]4COP(=O)(O)O[C@H]3[C@H]2O)c(=O)[nH]1 [cGpAp]
effect on IL-13 induced by IL-3 ([1]; under the conditions tested): little effect | inhibition of IgE-dependent IL-4 [2, 10]: evident | inhibition of IgE-dependent IL-4 [2, 11]: ~30%

CN[C@@H]1C[C@H]2O[C@@](C)([C@@H]1OC)n1c3ccccc3c3c4c(c5c6ccccc6n2c5c31)C(=O)NC4 [STS, staurosporine, reference compound]
cell death in primary hippocampal cultures [3]: caused significant cell death

CC(C)(C)[Si](C)(C)O[C@@H]1[C@@H]2OP(=O)(O)OC[C@H]3O[C@@H](n4cnc5c(=O)[nH]c(N)nc54)[C@H](O)[C@@H]3OP(=O)(O)OC[C@H]2O[C@H]1n1cnc2c(=O)[nH]c(N)nc21 [TBDMS-cGpGp, 2′-O-TBDMS-c-di-GMP]
inhibition of IL-13 induced by IL-3 ([1]; 10 micromolar): 30-40% | inhibition of IL-13 induced by IL-3 ([1]; 50 micromolar, at least 5 independent experiments): 70-80% | effect on TNF-alpha and IL-10 ([4]; alone or with CpG): little to no effect | TNF-alpha secreted above the ˜400 in medium alone ([4]; cells from one of the 3 subjects): 100-200 pg/10^6 cells | IL-10 secretion ([4]; used by itself, n=3): did not cause IL-10 secretion | effect on IgE-dependent histamine release [5]: essentially no effect | inhibition of IgE-dependent IL-4 [2, 10]: 30% | inhibition of IgE-dependent IL-4 [2, 11]: ~30% | time of SOCS mRNA peak [6]: ~12 h | SOC-3 mRNA ([6]; 18 h treatment): induced | SOCS-1 mRNA ([6]; 18 h treatment): induced

Nc1nc2c(ncn2[C@@H]2O[C@@H]3COP(=O)(O)O[C@H]3[C@H]2O)c(=O)[nH]1 [CTL, reference compound]
Total number lung cells ([7]; i.n. pretreatment 48 and 24 hr prior, lung digests 48 hrs after K. pneumoniae (kp), uninfected 2.7 × 10^7): 3.57 × 10^7 | αβTcr^+, CD69^+ ([7]; lung digests 48 hrs after kp, uninfected 0.33 × 10^5): 2.7 × 10^5 | DX5^+, CD69^+ ([7]; lung digests 48 hrs after kp, uninfected 0.78 × 10^5): 2.7 × 10^5 | PMN ([7]; lung digests 48 hrs after kp, uninfected 0.8 × 10^6): 7.35 × 10^6 | DX5^+ (NK) ([7]; lung digests 48 hrs after kp, uninfected 1.3 × 10^6): 2.5 × 10^6 | DX5^+, αβγδTcr^+(NK T^+) ([7]; lung digests 48 hrs after kp, uninfected 1.6 × 10^5): 4.7 × 10^5 | Mono/Macrophage ([7]; lung digests 48 hrs after kp, uninfected 2.3 × 10^7): 2.88 × 10^7 | αβTcr^+ ([7]; lung digests 48 hrs after kp, uninfected 2.6 × 10^6): 3.38 × 10^6

Nc1nc2c(ncn2[C@@H]2O[C@@H]3COP(=O)(O)O[C@H]4[C@@H](O)[C@H](n5cnc6c(=O)[nH]cnc65)O[C@@H]4COP(=O)(O)O[C@H]3[C@H]2O)c(=O)[nH]1 [cGpIp]
enhancement of IL-13 induced by IL-3 ([1]; two experiments): 25%

Cc1nc2ccccc2[nH]1 [2-methylbenzimidazole, reference compound]
solubility in water, methanol, and acetonitrile [8]: fairly soluble | stability in human serum [9]: stable
